This note sets out measurements from patent US20110306641A1, “NOVEL 2,6-SUBSTITUTED-3-NITROPYRIDINE DERIVATIVE, METHOD FOR PREPARING SAME, AND PHARMACEUTICAL PREPARATION INCLUDING SAME” (priority 2008, published 2011).

Data set [1] relates to Calvarial cell. Put plainly: Cytotoxicity test (MTT) in osteoblasts (calvarial cells). The settings on record: 1 μM, 72 hours, vs vehicle control.
The test system of data set [2] is Calvarial cell. Nature of the data set: Alkaline phosphatase (ALP) activity in osteoblasts (Calvarial cells). The data set is classed as cell-based, mouse. The settings on record: 3 days; for activity at 1 µM: Mus musculus, 72 h, read-out: ALP activity (1 μM, % of Control) Calvarial cell. As for the experimental part: Differentiation and activity of osteoblasts were indirectly evaluated by measuring an ALP activity having a close relationship with osteogenesis.
Osteoblasts (Calvarial cells) prepared in Experimental Example 1 and MC3T3-E1 cells (available from RIKEN Cell Bank, Japan) were collected in α-MEM supplemented with 10% FBS, followed by cell counting. The cells were dispensed into 24-well cultureware at a density of 2×10^4 cells/well. After culturing of the cells for 24 hours, the culture media were discarded and replaced with fresh media in which test compounds were diluted to a concentration of 1 μM (1 mL/well). In addition, the vehicle control group containing 0.1% DMSO was also treated. Under the conditions where the compounds were treated, the cells were cultured in a 5% CO2 […] at 37° for 3 days. When the experiment was terminated, the supernatant was removed and the cells were washed three times with cold phosphate buffer at 4°. 0.2% Triton X-100 was added to the washed cells which were then subjected to three cycles of freezing at −70° and thawing at room temperature for the complete lysis of cells. The cell extracts were pooled and centrifuged to collect the cell supernatant which was used for the measurement of ALP activity and proteins. The protein concentration was measured using a BCA assay kit (manufactured by Sigma-Aldrich). For the measurement of ALP activity, p-nitrophenylphosphate was added to the cell supernatant which was then incubated at 37° for 30 minutes, and the reaction was terminated with the addition of 50 μL of 0.2N sodium hydroxide. The standard curve was plotted at the absorbance of 405 nm using p-nitrophenol as a standard material and then the absorbance of test materials thus reacted was measured to determine the production amount of p-nitrophenol.
The ALP activity was calculated by dividing the amount of p-nitrophenol produced from each test material by the protein amount and the reaction time. Therefore, the unit of ALP activity was given in terms of p-nitrophenol/μg protein/min. The results are given in Table 3 where the ALP activity unit of each test material was given in terms of % change through the comparison between the individual test materials and the vehicle control group.

Data set [3] deals with osteoclastogenesis (formation of multinucleated osteoclasts). Put plainly: Osteoclastogenesis inhibition via co-culture system (bone marrow cells + osteoblasts, TRAP staining). Format: cell-based, mouse. The following applies: 7 days co-culture, vs vehicle control; for inhibition at 1 µM: Mus musculus, Osteoclast, 168 h. The protocol:
Osteoclastogenesis inhibitory effects of the compounds of the present invention were evaluated via a co-culture system (Reference: Endocrinology 137(1996), 2187 to 2190, E. Jimi et al.). A specific experimental method is as follows.
1) Preparation of Bone Marrow Cells and Osteoblasts
Femur and tibia were aseptically dissected from 6 to 8-week-old male ddY mice to harvest bone marrow cells by a conventional method using a syringe. In brief, tissues were removed from the dissected bone, the bone ends were cut off with scissors, and the bone marrow was isolated by pushing a medium-containing syringe (23G) against the one end of the cut bone. The isolated bone marrow was subjected to repeated piston movement of a syringe such that single cells were obtained (Reference: Endocrinology 123(1988), 2600 to 2602, Takahashi et al.). After removal of red blood cells within the bone marrow, the bone marrow cells recovered by centrifugation were placed in an α-MEM supplemented with 10% fetal bovine serum (FBS), followed by counting of nucleated cells and then were immediately used for a co-culture system.
For the preparation of osteoblasts (Calvarial cells), the cranial bone were aseptically dissected from 1 to 2-day-old neonatal ICR mice and subjected to continuous reaction with a 0.2% collagenase solution to separate osteoblasts. The cell-suspended supernatant was centrifuged to recover osteoblasts which were grown to full confluence in an α-MEM supplemented with 10% FBS and then diluted to a desired cell density for use in the experiment.
2) Osteoclastogenesis Inhibition Experiment Via Co-Culture System
As the medium used for a co-culture system, a differentiation medium with the addition of differentiation factors 1α,25-dihydroxyvitamin D3 (10^−8M) and dexamethasone (10^−8M) to α-MEM supplemented with 10% FBS was used for the induction of osteoclastogenesis. First, the compounds of the present invention dissolved in dimethyl sulfoxide (DMSO) at a concentration of 1 mM were diluted to 2 μM using the above-mentioned differentiation medium. As a vehicle control group, 0.2% (v/v) DMSO was added to the medium. 100 μL/well of each medium was added to 96-well plates. In addition, the above prepared bone marrow cells and osteoblasts were plated onto 96-well plates at a density of 1×10^5 cells/50 μL/well and 3×10^3 cells/50 μL/well, respectively. The total volume/well was 200 μL and the final compound concentration was 1 μM. The control group was 0.1% (v/v) DMSO. The cells were cultured with exchange of the culture media with fresh media containing differentiation factors and test materials (materials containing the compounds of the present invention) at an interval of 2 to 3 days.
7 days after culturing of cells, the formation of multinucleated osteoclasts was confirmed by microscopic examination, the medium was removed from the wells and then the cells were fixed in a 10% phosphate-buffered formalin solution. The degree of formation of mature osteoclasts was measured taking advantage of the characteristics of osteoclasts showing a positive reaction to a tartrate-resistant acid phosphatase (TRAP) staining solution. The TRAP staining solution was prepared in a manner such that naphthol AS-MS phosphate as a substrate and a coloring agent (Fast Red Violet LB salt) were dissolved in N,N-dimethylformamide, and a 0.1N NaHCO3 buffer solution containing 50 mM of tartaric acid was added thereto. Among the TRAP-positive cells under a light microscope, multinucleated osteoclasts having 6 to 7 nuclei were regarded as mature osteoclasts.
The degree of inhibition of osteoclastogenesis was calculated according to the following equation 1. The results are summarized in Table 2 below (Experiments were carried out for 4 wells/experimental group (n=4), and the results are given in terms of mean±standard deviation) […]

In the case of `O=[N+]([O-])c1ccc(NN2CCOCC2)nc1Nc1ccc2cn[nH]c2c1` [Compound 24, 2-(1H-indazol-6-yl)amino-6-[(4-morpholin-1-yl)amino]-3-nitropyridine], in the data set on Calvarial cell [1], the “Cell viability (%) Calvarial cell” value amounted to 110%. The “ALP activity (1 μM, % of Control) Calvarial cell” value with Calvarial cell [2] is listed as 107 % of Control. In addition, in data set [3] (1 μM), the “Osteoclastogenesis inhibition (%)” value is 86%.

Broadly, the inhibition is how much of the control response was suppressed. Take `O=[N+]([O-])c1ccc(NCCc2ccccn2)nc1Nc1ccc2[nH]ncc2c1` [Compound 27, 2-(1H-indazol-5-yl)amino-6-[(2-pyridyl)ethylamino]-3-nitropyridine]: in the data set on Calvarial cell [1], the “Cell viability (%) Calvarial cell” value was found to be 97%. For the same molecule, in data set [3], the inhibition at 1 µM stood at 90%.

As for `CN(C)CCNc1ccc([N+](=O)[O-])c(Nc2ccc3cn[nH]c3c2)n1` [Compound 20, 2-(1H-indazol-6-yl)amino-6-[2-(N,N-dimethylamino)ethylamino]-3-nitropyridine], the activity at 1 µM in the data set on Calvarial cell [2] stood at 119%. Moreover, in data set [3], the inhibition at 1 µM is 90%.

Regarding `C[C@@H](CO)Nc1ccc([N+](=O)[O-])c(Nc2ccc3[nH]ncc3c2)n1` [Compound 36, 2-(1H-indazol-5-yl)amino-6-[(1-(S)-methyl-2-hydroxyethyl)-amino]-3-nitropyridine], in the data set with Calvarial cell [1], the “Cell viability (%) Calvarial cell” value worked out at 103%. Moreover, the inhibition at 1 µM in data set [3] worked out at 72%.

Regarding `O=[N+]([O-])c1ccc(NC2CC2)nc1Nc1ccc2[nH]ncc2c1` [Compound 34, 2-(1H-indazol-5-yl)amino-6-(cyclopropylamino)-3-nitropyridine], the “Cell viability (%) Calvarial cell” value in the data set with Calvarial cell [1] turned out to be 93%. For the same molecule, in the data set on Calvarial cell [2], the activity at 1 µM turned out to be 154%. The inhibition at 1 µM in data set [3] worked out at 100%.

Take `Cc1cncn1-c1ccc([N+](=O)[O-])c(Nc2ccc3[nH]ncc3c2)n1` [Compound 4, 2-(1H-indazol-5-yl)amino-6-(5-methylimidazol-1-yl)-3-nitropyridine]: in the data set with Calvarial cell [1], the “Cell viability (%) Calvarial cell” value came to 101%. The inhibition at 1 µM in data set [3] turned out to be 67%.

Turning to `CN(C)c1ccc([N+](=O)[O-])c(Nc2ccc3[nH]ncc3c2)n1` [Compound 25, 2-(1H-indazol-5-yl)amino-6-(N,N-dimethylamino)-3-nitropyridine], the “Cell viability (%) Calvarial cell” value in the data set on Calvarial cell [1] is recorded as 106%. Besides, in the data set with Calvarial cell [2], the activity at 1 µM was found to be 128%. Moreover, in data set [3], the inhibition at 1 µM came out at 81%.

For the molecule `O=[N+]([O-])c1ccc(NCc2ccccn2)nc1Nc1ccc2cn[nH]c2c1` [Compound 21, 2-(1H-indazol-6-yl)amino-6-[(2-pyridyl)methylamino]-3-nitropyridine], the “Cell viability (%) Calvarial cell” value in the data set on Calvarial cell [1] came to 96%. For the same molecule, the activity at 1 µM in the data set on Calvarial cell [2] amounted to 115%.

As to `Nc1ccc([N+](=O)[O-])c(Nc2ccc3[nH]ncc3c2)n1` [Compound 32, 2-(1H-indazol-5-yl)amino-6-amino-3-nitropyridine], in the data set with Calvarial cell [1], the “Cell viability (%) Calvarial cell” value was 99%. The inhibition at 1 µM in data set [3] came to 100%.

Take `NC1CCCCC1Nc1ccc([N+](=O)[O-])c(Nc2ccc3[nH]ncc3c2)n1` (stereo not drawn) [Compound 30, 2-(1H-indazol-5-yl)amino-6-[(2-aminocyclohexyl)amino]-3-nitropyridine]: the “Cell viability (%) Calvarial cell” value with Calvarial cell [1] came out at 114%. Further, the inhibition at 1 µM in data set [3] was determined as 100%.

On to `CC1CN(c2ccc([N+](=O)[O-])c(Nc3ccc4[nH]ncc4c3)n2)CC(C)N1` (stereo not drawn) [Compound 44, 2-(1H-indazol-5-yl)amino-6-(3,5-dimethylpiperazin-1-yl)-3-nitropyridine], for which the “Cell viability (%) Calvarial cell” value in the data set on Calvarial cell [1] is 96%. Moreover, the inhibition at 1 µM in data set [3] is 90%.

For `O=[N+]([O-])c1ccc(NCCCn2ccnc2)nc1Nc1ccc2[nH]ncc2c1` [Compound 29, 2-(1H-indazol-5-yl)amino-6-[3-(imidazol-1-yl)propylamino]-3-nitropyridine], in the data set with Calvarial cell [1], the “Cell viability (%) Calvarial cell” value is 117%. Moreover, the inhibition at 1 µM in data set [3] came to 73%.

In the case of `O=[N+]([O-])c1ccc(N2CCNCC2)nc1Nc1ccc2cn[nH]c2c1` [Compound 38, 2-(1H-indazol-6-yl)amino-6-(piperazin-1-yl)-3-nitropyridine], the “Cell viability (%) Calvarial cell” value in the data set with Calvarial cell [1] is given as 91%. For the same molecule, the inhibition at 1 µM in data set [3] stood at 90%.

Regarding `O=[N+]([O-])c1ccc(NCc2ccncc2)nc1Nc1ccc2[nH]ncc2c1` [Compound 47, 2-(1H-indazol-5-yl)amino-6-[(4-pyridyl)methylamino]-3-nitropyridine], in the data set on Calvarial cell [1], the “Cell viability (%) Calvarial cell” value was found to be 102%. The inhibition at 1 µM in data set [3] turned out to be 71%.

With `O=[N+]([O-])c1ccc(NCCCn2ccnc2)nc1Nc1ccc2cn[nH]c2c1` [Compound 49, 2-(1H-indazol-6-yl)amino-6-[(3-imidazol-1-yl)propylamino]-3-nitropyridine], the “Cell viability (%) Calvarial cell” value with Calvarial cell [1] was 95%. For the same molecule, the activity at 1 µM in the data set on Calvarial cell [2] was 129%.

For the molecule `NCCCCNc1ccc([N+](=O)[O-])c(Nc2ccc3[nH]ncc3c2)n1` [Compound 50, 2-(1H-indazol-5-yl)amino-6-(4-amino-n-butylamino)-3-nitropyridine], in the data set with Calvarial cell [1], the “Cell viability (%) Calvarial cell” value turned out to be 95%. In addition, the inhibition at 1 µM in data set [3] is 100%.

Consider `CC1(C)CN(c2ccc([N+](=O)[O-])c(Nc3ccc4[nH]ncc4c3)n2)CC(C)(C)N1` [Compound 13, 2-(1H-indazol-5-yl)amino-6-(2,2,6,6-tetramethylpiperazin-4-yl)-3-nitropyridine], for which the “Cell viability (%) Calvarial cell” value with Calvarial cell [1] is on record as 94%. For the same molecule, the inhibition at 1 µM in data set [3] was 88%.

As for `CC(C)Nc1ccc([N+](=O)[O-])c(Nc2ccc3cn[nH]c3c2)n1` [Compound 33, 2-(1H-indazol-6-yl)amino-6-(isopropylamino)-3-nitropyridine], the “Cell viability (%) Calvarial cell” value in the data set with Calvarial cell [1] stood at 97%. Further, the activity at 1 µM in the data set on Calvarial cell [2] came to 122%.

As to `O=[N+]([O-])c1ccc(N2CCN(CCO)CC2)nc1Nc1ccc2[nH]ncc2c1` [Compound 15, 2-(1H-indazol-5-yl)amino-6-[4-(2-hydroxyethyl)piperazin-1-yl]-3-nitropyridine], the “Cell viability (%) Calvarial cell” value with Calvarial cell [1] is reported as 90%. Moreover, the inhibition at 1 µM in data set [3] was found to be 98%.

With `O=[N+]([O-])c1ccc(NCCN2CCOCC2)nc1Nc1ccc2cn[nH]c2c1` [Compound 28, 2-(1H-indazol-6-yl)amino-6-(2-morpholinoethylamino)-3-nitropyridine], the “Cell viability (%) Calvarial cell” value in the data set on Calvarial cell [1] came to 104%. Besides, the inhibition at 1 µM in data set [3] worked out at 74%.

Turning to `Cc1nccn1-c1ccc([N+](=O)[O-])c(Nc2ccc3[nH]ncc3c2)n1` [Compound 2, 2-(1H-indazol-5-yl)amino-6-(2-methylimidazol-1-yl)-3-nitropyridine], in the data set on Calvarial cell [1], the “Cell viability (%) Calvarial cell” value was 104%. In data set [3], the inhibition at 1 µM is 70%.
